The source of these data is US8524737B2, “Bi- and polycyclic substituted isoquinoline and isoquinolinone derivatives” (Sanofi, priority 2008, dated 2013).

The structures appear in SMILES notation. Bounds are passed on as bounds.

T1 sequence (O75116 11-552): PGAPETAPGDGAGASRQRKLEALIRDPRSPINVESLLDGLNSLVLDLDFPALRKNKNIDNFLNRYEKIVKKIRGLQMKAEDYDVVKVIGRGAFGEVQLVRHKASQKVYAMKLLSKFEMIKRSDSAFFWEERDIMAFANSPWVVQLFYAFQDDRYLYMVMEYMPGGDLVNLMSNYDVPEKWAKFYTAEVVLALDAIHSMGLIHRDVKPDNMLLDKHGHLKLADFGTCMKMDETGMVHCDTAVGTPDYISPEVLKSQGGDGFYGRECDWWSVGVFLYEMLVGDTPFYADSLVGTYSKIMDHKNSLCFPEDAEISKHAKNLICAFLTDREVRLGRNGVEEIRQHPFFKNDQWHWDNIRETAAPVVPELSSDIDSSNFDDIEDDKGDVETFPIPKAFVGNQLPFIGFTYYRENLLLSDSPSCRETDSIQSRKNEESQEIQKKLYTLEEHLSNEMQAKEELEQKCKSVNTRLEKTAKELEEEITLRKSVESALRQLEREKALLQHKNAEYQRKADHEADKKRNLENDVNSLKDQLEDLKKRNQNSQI

This experiment concerns the target T1, human recombinant ROCK II (Homo sapiens, UniProt O75116).
T1 construct: recombinant human ROCK-II residues 11-552; His6 (N); purchased Millipore GmbH, Schwalbach, Germany
The experiment can be described thus: Determination of Rho Kinase Inhibition (ROCK II, Caliper peptide phosphorylation assay). It is filed as biochemical. The settings on record: tested in the form (salt or free base) obtained in the examples. Here is the method:
Determination of Rho Kinase Inhibition To measure Rho-kinase inhibition, IC50 values were determined according to the following protocol: Active human recombinant ROCK II (N-terminal His6-tagged recombinant human ROCK-II residues 11-552) was purchased from Millipore GmbH, Schwalbach, Germany. The peptide substrate, Fluorescein-AKRRRLSSLRA-COOH, was obtained from JPT Peptide Technologies, Berlin, Germany. Adenosine-5′-triphosphate (ATP), bovine serum albumine (BSA), dimethylsulphoxide (DMSO), 4-(2-hydroxyethyl)piperazine-1-ethanesulfonic acid (Hepes), Brij-35, dithiothreitol (DTT) and Pluronic F-68 were purchased from Sigma-Aldrich, Munich, Germany. Tris(hydroxymethyl)-aminomethane (Tris), magnesium chloride, NaOH, 1M HCl and EDTA were obtained from Merck Biosciences, Darmstadt, Germany. “Complete” protease inhibitor was from Roche Diagnostics, Mannheim, Germany. Test compounds were diluted to the appropriate concentrations in buffer 1 (25 mM Tris-HCl, pH 7.4, 5 mM MgCl2, 2 mM DTT, 0.02% (w/v) BSA, 0.01% Pluronic F-68 and 3% DMSO). The ROCK II enzyme was diluted to a concentration of 100 ng/ml in buffer 2 (25 mM Tris-HCl, pH 7.4, 5 mM MgCl2, 2 mM DTT and 0.02% (w/v) BSA). The peptide substrate and ATP were diluted to concentrations of 3 μM and 120 μM, respectively, in the buffer 2. Two μl of the compound solution were mixed with 2 μl of the diluted enzyme in a 384-well small volume microtiter plate (Greiner, Bio-One, Frickenhausen, Germany), and the kinase reaction was initiated by addition of 2 μl of the solution containing peptide substrate and ATP. After 60 min incubation at 32° C., the reaction was stopped by addition of 20 μl of a solution containing 100 mM Hepes-NaOH, pH 7.4, 0.015% (v/v) Brij-35, 45 mM EDTA and 0.227% chip coating reagent 1 (Caliper Lifescience Inc, Hopkinton, Mass.). Phosphorylation of the substrate peptide was then detected on a Caliper 3000 instrument essentially as described by Pommereau et al (J. Biomol. Screening 2004, 9(5), 409-416). Separation conditions were as follows: Pressure −1.3 psi, upstream voltage −1562 V, downstream voltage −500 V, sample sip time 200 ms. Positive controls (buffer 1 instead of compound) and negative controls (buffer 1 instead of compound and buffer 2 instead of ROCK II) were run in parallel on each plate. The following products/compounds were tested in said assay by using the respective form (salt or free base) obtained as in the examples described above and the following activities were measured
In the case of `NC1C2CC3CC1CC(Oc1cc4cc[nH]c(=O)c4cc1Cl)(C3)C2` (single isomer, unassigned) [Example 1, 6-(4-Amino-adamantan-1-yloxy)-7-chloro-2H-isoquinolin-1-one], the IC50 was 10 to 100 nM. On to `C=CCC1(N)C2CC3CC1CC(Oc1cc4cc[nH]c(=O)c4cc1Cl)(C3)C2` (single isomer, unassigned) [Example 3, 6-(4-Allyl-4-amino-adamantan-1-yloxy)-7-chloro-2H-isoquinolin-1-one], for which the IC50 is 10 to 100 nM. Turning to `C=CCC1(N)C2CC3CC1CC(Oc1cc4cc[nH]c(=O)c4cc1Cl)(C3)C2` (single isomer, unassigned) [Example 4, 6-(4-Allyl-4-amino-adamantan-1-yloxy)-7-chloro-2H-isoquinolin-1-one], the 50% inhibitory concentration (IC50) is 100 to 1000 nM. For `CCCC1(N)C2CC3CC1CC(Oc1cc4cc[nH]c(=O)c4cc1Cl)(C3)C2` (single isomer, unassigned) [Example 5, 6-(4-Amino-4-propyl-adamantan-1-yloxy)-7-chloro-2H-isoquinolin-1-one], the IC50 is 10 to 100 nM.

Consider `CCCC1(N)C2CC3CC1CC(Oc1cc4cc[nH]c(=O)c4cc1Cl)(C3)C2` (single isomer, unassigned) [Example 6, 6-(4-Amino-4-propyl-adamantan-1-yloxy)-7-chloro-2H-isoquinolin-1-one], for which the IC50 was 100 to 1000 nM.

For the compound `CC1(N)C2CC3CC1CC(Oc1cc4cc[nH]c(=O)c4cc1Cl)(C3)C2` (single isomer, unassigned) [Example 8, 6-(4-Amino-4-methyl-adamantan-1-yloxy)-7-chloro-2H-isoquinolin-1-one], the IC50 was 10 to 100 nM. `NC1(c2ccccc2)C2CC3CC1CC(Oc1cc4cc[nH]c(=O)c4cc1Cl)(C3)C2` (single isomer, unassigned) [Example 9, 6-(4-Amino-4-phenyl-adamantan-1-yloxy)-7-chloro-2H-isoquinolin-1-one]: the half-maximal inhibitory concentration (IC50) was 100 to 1000 nM.

With `NC1(C2CC2)C2CC3CC1CC(Oc1cc4cc[nH]c(=O)c4cc1Cl)(C3)C2` (single isomer, unassigned) [Example 11, 6-(4-Amino-4-cyclopropyl-adamantan-1-yloxy)-7-chloro-2H-isoquinolin-1-one], the half-inhibitory concentration (IC50) is 10 to 100 nM. Same read-out and setting: the same measure for `O=c1[nH]ccc2cc(OC34CC5CC(C3)C(NCc3ccccc3)C(C5)C4)c(Cl)cc12` (single isomer, unassigned) [Example 12, 6-(4-Benzylamino-adamantan-1-yloxy)-7-chloro-2H-isoquinolin-1-one]: 100 to 1000 nM. As to `N[C@]12CC3CC(C1)[C@H](Oc1cc4cc[nH]c(=O)c4cc1Cl)C(C3)C2` (single isomer, unassigned) [Example 14, Cis-6-(5-Amino-adamantan-2-yloxy)-7-chloro-2H-isoquinolin-1-one], the IC50 was not above 10 nM. In the case of `N[C@]12CC3CC(C1)[C@@H](Oc1cc4cc[nH]c(=O)c4cc1Cl)C(C3)C2` (single isomer, unassigned) [Example 15, Trans-6-(5-Amino-adamantan-2-yloxy)-7-chloro-2H-isoquinolin-1-one], the 50% inhibitory concentration (IC50) was not above 10 nM. As for `Cc1cc2c(=O)[nH]ccc2cc1OC1C2CC3CC1CC(N)(C3)C2` (single isomer, unassigned) [Example 16, 6-(5-Amino-adamantan-2-yloxy)-7-methyl-2H-isoquinolin-1-one], the pIC50 result is listed as “+++++++ (8.0≦pIC50)”. On to `NC12C[C@H]3C[C@@H](C1)CC(Oc1cc4cc[nH]c(=O)c4cc1Cl)(C3)C2` [Example 13, 6-(3-Amino-adamantan-1-yloxy)-7-chloro-2H-isoquinolin-1-one], for which the IC50 is 100 to 1000 nM. In the case of `N[C@H]1C[C@H]2COC[C@@H](C1)[C@H]2Oc1cc2cc[nH]c(=O)c2cc1Cl` [Example 17, 6-{[(7-Endo,9-anti)-7-amino-3-oxabicyclo[3.3.1]non-9-yl]oxy}-7-chloroisoquinolin-1(2H)-one], the IC50 was 10 to 100 nM. Same read-out and setting: next, `N[C@H]1C[C@H]2COC[C@@H](C1)[C@@H]2Oc1cc2cc[nH]c(=O)c2cc1Cl` [Example 18, 6-{[(7-endo,9-syn)-7-amino-3-oxabicyclo[3.3.1]non-9-yl]oxy}-7-chloroisoquinolin-1(2H)-one]: 10 to 100 nM; `N[C@H]1C[C@H]2CSC[C@@H](C1)[C@H]2Oc1cc2cc[nH]c(=O)c2cc1Cl` [Example 19, 6-{[(7-Endo,9-anti)-7-amino-3-thiabicyclo[3.3.1]non-9-yl]oxy}-7-chloroisoquinolin-1(2H)-one]: 10 to 100 nM; `N[C@H]1C[C@H]2CSC[C@@H](C1)[C@@H]2Oc1cc2cc[nH]c(=O)c2cc1Cl` [Example 20, 6-{[(7-endo,9-syn)-7-amino-3-thiabicyclo[3.3.1]non-9-yl]oxy}-7-chloroisoquinolin-1(2H)-one]: 10 to 100 nM.

Regarding `O=c1[nH]ccc2cc(O[C@H]3CC[C@@]4(CCCN4)CC3)c(Cl)cc12` [Example 22, 6-(1-Aza-spiro[4.5]dec-8-yloxy)-7-chloro-2H-isoquinolin-1-one], the IC50 was 10 to 100 nM.

As usually defined, the IC50 is the concentration needed to halve the response being measured.
